pIC50: −log10 of the molar value.
How the values were obtained:
[1] = target: T1, Prostaglandin G/H synthase 2 (Homo sapiens, UniProt P35354); test: In vitro inhibition of PGE-2 produced by arachidonic acid-stimulated CHO cells stably expressing human Prostaglandin G/H synthase 2
T1 sequence (P35354 whole entry): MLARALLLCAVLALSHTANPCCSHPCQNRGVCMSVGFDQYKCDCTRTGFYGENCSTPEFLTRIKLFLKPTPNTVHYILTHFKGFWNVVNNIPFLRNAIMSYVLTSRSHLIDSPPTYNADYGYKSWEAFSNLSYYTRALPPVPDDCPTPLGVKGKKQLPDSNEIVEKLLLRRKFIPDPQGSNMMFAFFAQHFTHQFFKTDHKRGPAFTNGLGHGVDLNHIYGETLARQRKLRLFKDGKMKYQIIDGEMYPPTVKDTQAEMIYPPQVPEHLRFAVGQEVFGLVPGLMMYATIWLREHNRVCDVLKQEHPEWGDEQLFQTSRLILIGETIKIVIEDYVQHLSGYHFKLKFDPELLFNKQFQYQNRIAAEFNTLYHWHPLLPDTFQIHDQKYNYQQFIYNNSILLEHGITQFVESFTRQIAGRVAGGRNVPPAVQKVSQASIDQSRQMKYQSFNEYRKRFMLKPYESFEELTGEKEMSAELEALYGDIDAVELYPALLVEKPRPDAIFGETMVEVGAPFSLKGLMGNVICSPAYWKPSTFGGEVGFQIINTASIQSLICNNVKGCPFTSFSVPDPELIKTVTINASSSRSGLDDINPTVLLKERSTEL

[2] = target: T1, Prostaglandin G/H synthase 2
Description: Inhibition of Prostaglandin G/H synthase 2 was measured by the inhibition of PGE-2 produced by lipopolysaccharide-challenged HWB

[3] = target: Prostaglandin G/H synthase 1 (Homo sapiens, UniProt P23219); test: Inhibition of Prostaglandin G/H synthase 1 was measured by the inhibition of PGE-2 produced by microsomes from U937 cells at subsaturating arachidonic acid conc.; type: cell-based, U-937
Sequence of Prostaglandin G/H synthase 1 (P23219 whole entry): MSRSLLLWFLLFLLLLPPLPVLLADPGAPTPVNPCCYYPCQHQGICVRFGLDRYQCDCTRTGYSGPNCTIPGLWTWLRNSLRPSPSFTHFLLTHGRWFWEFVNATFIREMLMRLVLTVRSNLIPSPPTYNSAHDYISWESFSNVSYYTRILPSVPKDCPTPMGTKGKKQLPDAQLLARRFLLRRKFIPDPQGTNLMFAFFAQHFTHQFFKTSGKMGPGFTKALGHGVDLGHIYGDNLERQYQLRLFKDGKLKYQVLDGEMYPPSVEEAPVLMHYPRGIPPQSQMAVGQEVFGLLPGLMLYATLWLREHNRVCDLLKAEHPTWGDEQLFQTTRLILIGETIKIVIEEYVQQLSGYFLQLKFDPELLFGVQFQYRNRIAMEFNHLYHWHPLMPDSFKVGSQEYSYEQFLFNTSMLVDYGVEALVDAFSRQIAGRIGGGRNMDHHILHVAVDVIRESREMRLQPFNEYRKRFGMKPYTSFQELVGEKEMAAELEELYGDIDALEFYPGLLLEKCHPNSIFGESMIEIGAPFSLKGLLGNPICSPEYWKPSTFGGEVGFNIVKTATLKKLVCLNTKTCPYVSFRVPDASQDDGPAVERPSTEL

Rattus norvegicus [4] = test: In vivo potency at 10 mg/kg in the rat paw edema assay; type: functional
Rattus norvegicus [5] = test: Efficacy in rat paw edema assay upon oral administration.; type: functional
[6] = Compound was evaluated for plasma concentration in rats when administered at 20 mg/kg in methocel at 2 hr; type: ADME, organism-based; design: dose 20 mg/kg; settings: rat, read-out: Cmax
Rattus norvegicus [7] = test: Efficacy in rat pyresis assay upon oral administration; type: functional
[8] = Compound was evaluated for plasma concentration in rats when administered at 20 mg/kg in methocel at 0.5 hr; type: ADME, organism-based; design: dose 20 mg/kg; settings: rat, read-out: Cmax
Rattus norvegicus [9] = test: In vivo potency at 20 mg/kg in the rat paw edema assay; type: functional
[10] = Compound was evaluated for plasma concentration in rats when administered at 20 mg/kg in methocel at 1 hr; type: ADME, organism-based; design: dose 20 mg/kg; settings: rat, read-out: Cmax
Rattus norvegicus [11] = test: Compound was evaluated for efficacy in rat paw edema assay upon oral administration; type: functional
Rattus norvegicus [12] = test: In vivo inhibitory dose in carrageenan-induced hyperalgesia in rats; type: functional; settings: read-out: ID50 (the source's name)
Rattus norvegicus [13] = test: In vivo inhibitory dose in adjuvant-induced arthritis in rats; type: functional

SMILES	pIC50 [1]	pIC50 [2]	pIC50 [3]	ED50 (Rattus norvegicus [5])	ED50 (Rattus norvegicus [7])	further results
CS(=O)(=O)c1ccc(-c2cccnc2-c2cccnc2)cc1	6.21	< 4.48	< 4.00	–	–	–
COc1nc(-c2ccc(F)cc2)c(-c2ccc(S(C)(=O)=O)cc2)cc1C#N	–	–	–	–	–	inhibition in vivo at 10 mg/kg (Rattus norvegicus [4]): 16%
Cc1ccc(-c2ncc(Cl)cc2-c2ccc(S(N)(=O)=O)cc2)cn1	7.64	5.62	6.10	–	–	–
CS(=O)(=O)c1ccc(-c2cc(Cl)cnc2-c2ccccn2)cc1	7.17	5.24	4.20	–	–	–
CS(=O)(=O)c1ccc(-c2cc(Cl)cnc2-c2ccc(C3CC3)nc2)cc1	7.80	–	5.22	2 mg/kg	4.9 mg/kg	concentration at 2 h [6]: 9 µM
CCc1ccc(-c2ncc(Cl)cc2-c2ccc(S(C)(=O)=O)cc2)cn1	–	–	4.89	1.6 mg/kg	2.6 mg/kg	concentration at 0.5 h [8]: 9 µM
COc1cc(-c2ccc(S(C)(=O)=O)cc2)c(-c2ccc(F)cc2)c(C(F)(F)F)n1	–	–	–	–	–	inhibition in vivo at 20 mg/kg (Rattus norvegicus [9]): 12%
CS(=O)(=O)c1ccc(-c2cccnc2-c2ccccc2)cc1	–	–	4.70	> 10 mg/kg	–	concentration at 0.5 h [8]: 40 µM
CS(=O)(=O)c1ccc(-c2cc(Br)sc2-c2ccc(F)cc2)cc1 [DUP-697]	–	–	–	1.3 mg/kg	–	–
Cc1ccc(-c2ncc(Cl)cc2-c2ccc(S(C)(=O)=O)cc2)cn1 [ETORICOXIB]	–	–	4.92	0.6 mg/kg	0.5 mg/kg	concentration at 1 h [10]: 30 µM
COc1ccc2c(c1)c(CC(=O)O)c(C)n2C(=O)c1ccc(Cl)cc1 [INDOMETHACIN]	–	–	–	–	1.1 mg/kg	ED50 (Rattus norvegicus [11]): 2 mg/kg; ED50 (Rattus norvegicus [12]): 1.5 mg/kg; ID50 (Rattus norvegicus [13]): 0.2 mg kg-1 day-1 b.i.d.

Now from value to compound, other results behind:

pIC50 [1]	pIC50 [2]	pIC50 [3]	SMILES	ED50 (Rattus norvegicus [5])	ED50 (Rattus norvegicus [7])	further results
6.46	5.68	4.23	Cc1cnc(-c2cccnc2)c(-c2ccc(S(C)(=O)=O)cc2)c1	–	–	–
6.08	5.57	< 4.00	Cc1ccncc1-c1ncc(Cl)cc1-c1ccc(S(C)(=O)=O)cc1	–	–	–
–	–	4.51	CS(=O)(=O)c1ccc(-c2cc(C(F)(F)F)cnc2-c2cccnc2)cc1	1.7 mg/kg	1.4 mg/kg	concentration at 2 h [6]: 24 µM
–	–	4.09	CS(=O)(=O)c1ccc(-c2cc(Cl)cnc2-c2ccncc2)cc1	–	–	–
7.47	6.05	4.72	CS(=O)(=O)c1ccc(-c2cc(Cl)cnc2-c2cccnc2)cc1	2.3 mg/kg	0.8 mg/kg	concentration at 2 h [6]: 52 µM
7.06	5.42	< 4.00	Cc1cncc(-c2ncc(Cl)cc2-c2ccc(S(C)(=O)=O)cc2)c1	–	–	–
5.88	5.59	4.35	Cc1ncccc1-c1ncc(Cl)cc1-c1ccc(S(C)(=O)=O)cc1	–	–	–

— ChEMBL document CHEMBL1130609, “2-Pyridinyl-3-(4-methylsulfonyl)phenylpyridines: selective and orally active cyclooxygenase-2 inhibitors” (Bioorg Med Chem Lett, 1998)
